≈ marks a conversion by molar mass, not a printed value.
What was measured:
[1] = tested on: Mycobacterium tuberculosis; assay: Antituberculosis activity against Mycobacterium tuberculosis H37Rv after 2 weeks; assay type: functional; details: 336 h
[2] = tested on: Mycobacterium tuberculosis; assay: Antituberculosis activity against Mycobacterium tuberculosis H37Rv assessed as minimum anaerobicidal cancentration after 3 weeks; assay type: functional

| SMILES | MIC [1] | MAC [2] |
| --- | --- | --- |
| Nc1c([N+](=O)[O-])nc2n1C[C@H](OCc1ccc(OC(F)(F)F)cc1)CO2 | > 100 µM | >100 µM |
| O=[N+]([O-])c1nc2n(c1Br)C[C@H](OCc1ccc(OC(F)(F)F)cc1)CO2 | 25 µM (≈ 11 µg/mL) | 32.5 µM |
| N#Cc1c([N+](=O)[O-])nc2n1C[C@H](OCc1ccc(OC(F)(F)F)cc1)CO2 | > 100 µM |  |
| O=[N+]([O-])c1nc2n(c1Cl)C[C@H](OCc1ccc(OC(F)(F)F)cc1)CO2 | 25 µM (≈ 9.84 µg/mL) |  |
| O=[N+]([O-])c1cn2c(n1)OC[C@@H](OCc1ccc(OC(F)(F)F)cc1)C2 [PRETOMANID] | 0.8 µM (≈ 0.287 µg/mL) | 8 µM |

— ChEMBL document CHEMBL1641439, “The effect of 5-substitution on the electrochemical behavior and antitubercular activity of PA-824” (2011)
